Test results published in ChEMBL document CHEMBL1201862, “PubChem BioAssay data set” (2004).
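Assay format: 96-well plates, 48-hour exposure. GI50: concentration for 50% inhibition of growth.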 The source made the active and inactive calls. Cut-off read from the data, not from the text of the source: active = GI50 up to about 1.1 µM and inactive = higher.

How the values were obtained:
Assay in all cases: NCI anticancer screen, dose series, 48 h
786-0 = tested on: 786-0
A498 = tested on: A498
A549 = tested on: A549
ACHN = tested on: ACHN
BT-549 = tested on: BT-549
CAKI-1 = tested on: CAKI-1
CCRF-CEM = tested on: CCRF-CEM
COLO 205 = tested on: COLO 205
DU-145 = tested on: DU-145
EKVX = tested on: EKVX
HCT-116 = tested on: HCT-116
HCT-15 = tested on: HCT-15
HL-60 = tested on: HL-60
HOP-62 = tested on: HOP-62
HOP-92 = tested on: HOP-92
HT-29 = tested on: HT-29
Hs-578T = tested on: Hs-578T
IGROV-1 = tested on: IGROV-1
K562 = tested on: K562
KM12 = tested on: KM12
LOX IMVI = tested on: LOX IMVI
M14 = tested on: M14
MCF7 = tested on: MCF7
MDA-MB-231 = tested on: MDA-MB-231
MDA-MB-435 = tested on: MDA-MB-435
MDA-N = tested on: MDA-N
MOLT-4 = tested on: MOLT-4
Malme-3M = tested on: Malme-3M
NCI-H23 = tested on: NCI-H23
NCI-H460 = tested on: NCI-H460
NCI-H522 = tested on: NCI-H522
NCI/ADR-RES = tested on: NCI/ADR-RES
OVCAR-3 = tested on: OVCAR-3
OVCAR-4 = tested on: OVCAR-4
OVCAR-8 = tested on: OVCAR-8
PC-3 = tested on: PC-3
RPMI-8226 = tested on: RPMI-8226
RXF 393 = tested on: RXF 393
SF-268 = tested on: SF-268
SF-295 = tested on: SF-295
SF-539 = tested on: SF-539
SK-MEL-28 = tested on: SK-MEL-28
SK-MEL-2 = tested on: SK-MEL-2
SK-MEL-5 = tested on: SK-MEL-5
SK-OV-3 = tested on: SK-OV-3
SN12C = tested on: SN12C
SNB-19 = tested on: SNB-19
SNB-75 = tested on: SNB-75
SW-620 = tested on: SW-620
T47D = tested on: T47D
TK-10 = tested on: TK-10
U-251 = tested on: U-251
UACC-257 = tested on: UACC-257
UACC-62 = tested on: UACC-62
UO-31 = tested on: UO-31
NCI-H226 = tested on: NCI-H226
OVCAR-5 = tested on: OVCAR-5

COc1ccc2c(c1)C(N)=C(Cc1ccncc1)C2=O
GI50 (786-0): > 100 µM (inactive)
GI50 (A498): > 100 µM (inactive)
GI50 (A549): > 100 µM (inactive)
GI50 (ACHN): > 100 µM (inactive)
GI50 (BT-549): > 100 µM (inactive)
GI50 (CAKI-1): > 100 µM (inactive)
GI50 (CCRF-CEM): 75.2 µM (inactive)
GI50 (COLO 205): > 100 µM (inactive)
GI50 (DU-145): > 100 µM (inactive)
GI50 (EKVX): 53.5 µM (inactive)
GI50 (HCT-116): > 100 µM (inactive)
GI50 (HCT-15): > 100 µM
GI50 (HL-60): 49.4 µM (inactive)
GI50 (HOP-62): > 100 µM (inactive)
GI50 (HOP-92): 31.4 µM (inactive)
GI50 (HT-29): > 100 µM (inactive)
GI50 (Hs-578T): > 100 µM (inactive)
GI50 (IGROV-1): 56.9 µM (inactive)
GI50 (K562): > 100 µM (inactive)
GI50 (KM12): > 100 µM (inactive)
GI50 (LOX IMVI): > 100 µM (inactive)
GI50 (M14): > 100 µM (inactive)
GI50 (MCF7): 82.4 µM (inactive)
GI50 (MDA-MB-231): > 100 µM (inactive)
GI50 (MDA-MB-435): > 100 µM (inactive)
GI50 (MDA-N): > 100 µM (inactive)
GI50 (MOLT-4): 63.1 µM (inactive)
GI50 (Malme-3M): > 100 µM (inactive)
GI50 (NCI-H23): > 100 µM (inactive)
GI50 (NCI-H460): > 100 µM (inactive)
GI50 (NCI-H522): 89.7 µM (inactive)
GI50 (NCI/ADR-RES): > 100 µM (inactive)
GI50 (OVCAR-3): > 100 µM (inactive)
GI50 (OVCAR-4): 98.4 µM (inactive)
GI50 (OVCAR-8): > 100 µM (inactive)
GI50 (PC-3): 91.8 µM (inactive)
GI50 (RPMI-8226): > 100 µM (inactive)
GI50 (RXF 393): > 100 µM (inactive)
GI50 (SF-268): > 100 µM (inactive)
GI50 (SF-295): > 100 µM (inactive)
GI50 (SF-539): > 100 µM (inactive)
GI50 (SK-MEL-28): > 100 µM (inactive)
GI50 (SK-MEL-2): > 100 µM (inactive)
GI50 (SK-MEL-5): > 100 µM (inactive)
GI50 (SK-OV-3): > 100 µM (inactive)
GI50 (SN12C): 63 µM (inactive)
GI50 (SNB-19): > 100 µM (inactive)
GI50 (SNB-75): 28.4 µM (inactive)
GI50 (SW-620): > 100 µM (inactive)
GI50 (T47D): 55.2 µM (inactive)
GI50 (TK-10): > 100 µM (inactive)
GI50 (U-251): > 100 µM (inactive)
GI50 (UACC-257): > 100 µM (inactive)
GI50 (UACC-62): 81.3 µM (inactive)
GI50 (UO-31): 46 µM (inactive)

CC(/C=C/C(O)=C1/C(=O)CNC1=O)=C\[C@@H](C)[C@H]1O[C@@]2(C)O[C@H](C(=O)[C@@H]3O[C@@]32C)[C@@H]1C
GI50 (786-0): 16.7 µM (inactive)
GI50 (A498): 14.3 µM (inactive)
GI50 (ACHN): 19.6 µM (inactive)
GI50 (BT-549): 15.8 µM (inactive)
GI50 (CAKI-1): 19.4 µM (inactive)
GI50 (CCRF-CEM): 7.24 µM (inactive)
GI50 (COLO 205): 20.7 µM (inactive)
GI50 (DU-145): 18.9 µM (inactive)
GI50 (EKVX): 17.7 µM (inactive)
GI50 (HCT-116): 18.9 µM (inactive)
GI50 (HCT-15): 18.4 µM
GI50 (HL-60): 11.7 µM (inactive)
GI50 (HOP-62): 22.2 µM (inactive)
GI50 (HT-29): 21.9 µM (inactive)
GI50 (Hs-578T): 24.9 µM (inactive)
GI50 (IGROV-1): 20.4 µM (inactive)
GI50 (K562): 19.8 µM (inactive)
GI50 (KM12): 20 µM (inactive)
GI50 (LOX IMVI): 14.5 µM (inactive)
GI50 (M14): 31.8 µM (inactive)
GI50 (MCF7): 19.7 µM (inactive)
GI50 (MDA-MB-231): 18.4 µM (inactive)
GI50 (MDA-MB-435): 28.2 µM (inactive)
GI50 (MDA-N): 35.8 µM (inactive)
GI50 (MOLT-4): 14.7 µM (inactive)
GI50 (Malme-3M): 18.1 µM (inactive)
GI50 (NCI-H226): 21.2 µM (inactive)
GI50 (NCI-H23): 23.5 µM (inactive)
GI50 (NCI/ADR-RES): 26.6 µM (inactive)
GI50 (OVCAR-3): 18.9 µM (inactive)
GI50 (OVCAR-5): 18.3 µM (inactive)
GI50 (OVCAR-8): 20.2 µM (inactive)
GI50 (PC-3): 14 µM (inactive)
GI50 (RPMI-8226): 12.2 µM (inactive)
GI50 (RXF 393): 1.14 µM (inactive)
GI50 (SF-268): 21.1 µM (inactive)
GI50 (SF-539): 18.7 µM (inactive)
GI50 (SK-MEL-28): 17.6 µM (inactive)
GI50 (SK-MEL-2): 22.7 µM (inactive)
GI50 (SK-MEL-5): 17.5 µM (inactive)
GI50 (SK-OV-3): 21.5 µM (inactive)
GI50 (SN12C): 20.3 µM (inactive)
GI50 (SNB-19): 22.9 µM (inactive)
GI50 (SNB-75): 34.8 µM (inactive)
GI50 (SW-620): 29.8 µM (inactive)
GI50 (T47D): 15.1 µM (inactive)
GI50 (TK-10): 19.2 µM (inactive)
GI50 (U-251): 19.5 µM (inactive)
GI50 (UACC-257): 15.3 µM (inactive)
GI50 (UACC-62): 16.7 µM (inactive)
GI50 (UO-31): 13.8 µM (inactive)
